Source: paper PMC9323625, “Structure–Function Insights into the Fungal Endo-Chitinase Chit33 Depict its Mechanism on Chitinous Material” (International Journal of Molecular Sciences, 2022)

Biological target: T1, Chit33 (Trichoderma harzianum, UniProt Q12713, D165A/E167A)
T1 construct: gene chit33 (909 bp, 321 amino acids) expressed in Pichia pastoris GS115 from CHIT33-pIB4, secreted to the extracellular fraction; 33 kDa
T1 sequence (Q12713 20-321 D165A/E167A): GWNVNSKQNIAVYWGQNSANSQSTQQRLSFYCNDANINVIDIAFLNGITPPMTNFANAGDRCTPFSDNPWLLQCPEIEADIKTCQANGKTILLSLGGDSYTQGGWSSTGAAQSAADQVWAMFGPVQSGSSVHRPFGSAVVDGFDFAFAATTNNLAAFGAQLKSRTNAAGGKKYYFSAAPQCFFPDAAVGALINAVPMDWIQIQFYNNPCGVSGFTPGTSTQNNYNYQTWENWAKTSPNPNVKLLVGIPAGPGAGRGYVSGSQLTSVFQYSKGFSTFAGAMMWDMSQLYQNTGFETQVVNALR
Test: X-ray crystal structure, […] Å
Format: binding
Conditions: crystal soaked with 18 mM NAG4 for 30 min; active site, subsites −2 to +2; inactivated double mutant

`CC(=O)N[C@H]1[C@H](O[C@H]2[C@H](O)[C@@H](NC(C)=O)C(O)O[C@@H]2CO)O[C@H](CO)[C@@H](O[C@@H]2O[C@H](CO)[C@@H](O[C@@H]3O[C@H](CO)[C@@H](O)[C@H](O)[C@H]3NC(C)=O)[C@H](O)[C@H]2NC(C)=O)[C@@H]1O` (stereo partly shown) [NAG4, N,N’,N’’,N’’’-acetyl chitotetraose] was tested, and the “X-ray crystal structure, 1.60 Å” value was “we determined the crystal structure of the inactive double-mutant D165A/E167A with the substrate NAG4”.
